Measured values from US6673834B2, “Hydroperylene derivatives” (priority 2001, dated 2004).
Read-outs that look alike come from different tables or passages of the source.

Columns and labels:
thrombocytes = assay: Test for inhibition of thrombocyte aggregation (turbidimetric, Born; aggregometer PAP 4); assay type: cell-based; settings: read-out: IC50 (platelet aggregation)
Source text: The inhibition of platelet aggregation can be measured, inter alia, by determining platelet aggregation turbimetrically as described by Born (Born, GV, Nature, 1962,194: 927-929).
(§1) Principle of the test: the method is based on the property that the optical density of a particle suspension depends on the […]. After a platelet suspension has been stimulated, the platelets begin to aggregate. This leads to the appearance of relatively large platelet aggregates and to an increase in light transmission. This increase is registered photometrically, and recorded in curve form, continuously. The degrees to which the thrombocytes can be aggregated, or to which this aggregation can be inhibited, can be deduced from the changes in light transmission. The method of staining cells with calcein was used for determining cytotoxicity (Hollo Z et al., Biochim Biophys Acta 11;1191(2):384-8, 1994). Living cells incorporate the substrate calcein acetoxymethyl ester (C-AM), which is hydrolyzed in the cells by nonspecific esterases. […] In the living cell, it is converted into the fluorescent hydrolysis product and the vitality of the cells can be measured on the basis of the fluorescence (λex:485 nm/λem:538 nm).
By way of example, Table 2 summarizes the inhibitory effects of some hydroperylene derivatives as IC50 values. The IC50 value indicates the concentration which inhibits thrombocyte aggregation by 50% under defined conditions.
Test for Inhibition of Thrombocyte Aggregation
The assay was carried out as follows:
Final concentration of activator: 0.05 U of thrombin/ml or 1 μg of collagen/ml
Aggregation in Aggregometer (PAP 4)
Cell number, 3×10^5 thrombocytes/μl
The blank value for the channels of the aggregometer is first of all adjusted using buffer. The thrombocytes are then pipetted into microtubes and, after the thrombocytes have been added, heated at 37° C. for a few minutes in the aggregometer. After a magnetic stirrer has been added to each reaction tube, the substances, and CaCl2, are added and a start is made in recording the course of the curve in the aggregometer. After 2 minutes of incubation, the activator, or buffer in the case of the control, is added. The course of the curve is then recorded for a further 6 min at 37° C. and at a stirrer speed of 1050 revolutions per minute.

cells = assay: Cytotoxicity by staining cells with calcein (calcein AM fluorescence); assay type: cell-based; settings: read-out: IC50 (toxicity)
Source text: as §1

[1] = Solubility of thioperylenol; assay type: physicochemical
Source text: (§2) The physicochemical and spectroscopic properties of thioperylenol can be summarized as follows:
(§3) Brownish crystals which are soluble in medium-polar and polar organic solvents and soluble in aqueous neutral buffers. Stable in neutral and mildly acidic, non-oxidizing medium but unstable in strongly acidic and strongly alkaline solution.

[2] = Stability of thioperylenol in solution; assay type: physicochemical
Source text: as §2, §3

[3] = concentration which inhibits thrombocyte aggregation by 50%, activator 0.05 U of thrombin/ml or 1 μg of collagen/ml, 37° C.
[4] = cell toxicity, calcein AM staining

Compound | IC50 (thrombocytes; [3]) | IC50 (cells; [4]) | further results
Altertoxin III | 6.1 µM | 20 µM | –
O=C1C[C@H](O)[C@@H]2c3c(ccc(O)c31)-c1ccc(O)c3c1[C@@]2(O)CCC3=O [Altertoxin I] | 29 µM | > 100 µM | –
O=C1CC(SCC(O)C(=O)O)[C@]2(O)c3c(ccc(O)c31)-c1ccc(O)c3c1C2C1OC1C3O (some centres unmarked) [Thioperylenol, thioperylenol] | – | 61 µM | IC50 (thrombocytes; Platelet, concentration which inhibits thrombocyte aggregation by 50%, activator 0.05 U of thrombin/ml or 1 μg of collagen/ml, 37° C.): 7.2 µM; Solubility ([1]; aqueous neutral buffers): soluble; Solubility ([1]; medium-polar and polar organic solvents): soluble; Stability ([2]; neutral and mildly acidic, non-oxidizing medium): Stable; Stability ([2]; strongly acidic and strongly alkaline solution): unstable
O=C1CCC2(O)c3c(ccc(O)c31)-c1ccc(O)c3c1C2C1OC1C3=O (centres unmarked) [Altertoxin II] | 2.6 µM | 10 µM | –
O=C1C[C@@H](O)[C@H]2c3c(ccc(O)c31)-c1ccc(O)c3c1[C@]2(O)C=CC3=O (stereo in doubt) [Alterperylenol] | – | – | IC50 (thrombocytes; Platelet): 1.6 µM; IC50 (cells): > 100 µM
